In patent publication US7084261B2, “Pegylated T1249 polypeptide” (Hoffmann-La Roche Inc., priority 2002, dated 2006):
Converted amounts (≈) assume the structure as drawn. Like-named read-outs stand apart in the source and are kept apart here.

Experiments:
HIV-1 = test system: HIV-1
Text: The number of stained nuclei can thus be interpreted as equal to the number of infectious virions in the challenge inoculum if there is only one round of infection prior to staining.

[1] = Pharmacokinetics of T1249 in rats after a single subcutaneous or intravenous dose; type: in vivo; conditions: both sexes, Sprague-Dawley, blood, rat; for half-life: read-out: T1/2terminal (converted)
Experimental: Each treatment group, consisted of 9 Sprague-Dawley rats (Charles River Laboratories, Wilmington, Del.) per sex. Each member of the group received a single subcutaneous or intravenous dose of T1249 (batch 2 referenced in Example 9/Table 5). […]
Blood samples were collected from test animals over a twelve hour time period from three rats per sex per group at each time point. The time points were 0.5, 1, 2, 4, 6, 8,10, and 12 hours after dose administration.
The blood samples were analyzed using a T1249 PcAb ECLIA assay. T1249 PcAb ECLIA is a noncompetitive, two site immunoassay that utilizes two different preparations of rabbit PcAb specific for T1249. In this assay, T1249 determinations are preformed by first incubating the diluted test sample in a tube that also contains biotin-labeled antibody (preparation A) and ruthenium-labeled antibody (preparation B). In the next step, streptavidin-coated magnetic beads are added to the tube in order to capture the antibody-peptide-antibody immune complexes (sandwiches) that have formed. The mixture is then pumped through a flow-cell in the analyzer, after which an electrical current is applied to […] adjacent to the flow-cell. Light is generated through cyclical oxidation-reduction reactions between the ruthenium metal ions that are conjugated to the detector antibodies and tripropylamine ions that are present in excess in the assay buffer. This light energy is the measured end-point. A sample containing an appreciable amount of T1249 presents a higher signal compared to a sample containing little or no T1249.

Compound: CC[C@H](C)[C@H](NC(=O)[C@H](CCC(N)=O)NC(=O)[C@H](C)NC(=O)[C@H](CCC(N)=O)NC(=O)[C@H](CCC(=O)O)NC(=O)[C@H](CC(C)C)NC(=O)[C@H](CC(C)C)NC(=O)[C@H](C)NC(=O)[C@@H](NC(=O)[C@@H](NC(=O)[C@H](CCCCN)NC(=O)[C@H](CCC(N)=O)NC(=O)[C@H](CCC(=O)O)NC(=O)[C@H](Cc1c[nH]c2ccccc12)NC(=O)[C@H](CCC(=O)O)NC(=O)[C@H](CCC(N)=O)NC(=O)[C@@H](N)Cc1c[nH]c2ccccc12)[C@@H](C)CC)[C@@H](C)O)C(=O)N[C@@H](CCC(N)=O)C(=O)N[C@@H](CCC(N)=O)C(=O)N[C@@H](CCC(=O)O)C(=O)N[C@@H](CCCCN)C(=O)N[C@@H](CC(N)=O)C(=O)N[C@@H](CCC(=O)O)C(=O)N[C@@H](Cc1ccc(O)cc1)C(=O)N[C@@H](CCC(=O)O)C(=O)N[C@@H](CC(C)C)C(=O)N[C@@H](CCC(N)=O)C(=O)N[C@@H](CCCCN)C(=O)N[C@@H](CC(C)C)C(=O)N[C@@H](CC(=O)O)C(=O)N[C@@H](CCCCN)C(=O)N[C@@H](Cc1c[nH]c2ccccc12)C(=O)N[C@@H](C)C(=O)N[C@@H](CO)C(=O)N[C@@H](CC(C)C)C(=O)N[C@@H](Cc1c[nH]c2ccccc12)C(=O)N[C@@H](CCC(=O)O)C(=O)N[C@@H](Cc1c[nH]c2ccccc12)C(=O)N[C@@H](Cc1ccccc1)C(N)=O [Example T1249]
- IC50 (HIV-1; 50% reduction in infectious virus titer): 0.003 µg/mL (≈ 0.601 nM)
- IC90 (HIV-1; 90% reduction in infectious titer): 0.023 µg/mL (≈ 4.6 nM)
- AUC(0-inf) ([1]; 1.2 mg/kg (SC)): 27600 ng·h/mL
- AUC(0-t) ([1]; 1.2 mg/kg (SC)): 27000 ng·h/mL
- Cmax ([1]; 1.2 mg/kg (SC)): 6370 ng/mL
- Tmax ([1]; 1.2 mg/kg (SC)): 1.09 h
- half-life ([1]; 1.2 mg/kg (SC)): 2.02 h
- AUC(0-inf) ([1]; 1.5 mg/kg (IV)): 47100 ng·h/mL
- AUC(0-t) ([1]; 1.5 mg/kg (IV)): 45600 ng·h/mL
- Cmax ([1]; 1.5 mg/kg (IV)): 15700 ng/mL
- half-life ([1]; 1.5 mg/kg (IV)): 2.46 h
- AUC(0-inf) ([1]; 5.0 mg/kg (IV)): 120000 ng·h/mL
- AUC(0-t) ([1]; 5.0 mg/kg (IV)): 118000 ng·h/mL
- Cmax ([1]; 5.0 mg/kg (IV)): 46300 ng/mL
- half-life ([1]; 5.0 mg/kg (IV)): 1.86 h
- AUC(0-inf) ([1]; 15 mg/kg (SC)): 110000 ng·h/mL
- AUC(0-t) ([1]; 15 mg/kg (SC)): 107000 ng·h/mL
- Cmax ([1]; 15 mg/kg (SC)): 21500 ng/mL
- Tmax ([1]; 15 mg/kg (SC)): 1.88 h
- half-life ([1]; 15 mg/kg (SC)): 2 h
